Assay results: ChEMBL document CHEMBL1121498, “Conformationally restricted phenothiazine neuroleptics. 1. 3-(Dimethylamino)-1,2,3,4-tetrahydroazepino[3,2,1-kl]phenothiazine” (J Med Chem, 1980)

Legend:
Rattus norvegicus [1] = organism: Rattus norvegicus; experiment: (§1) Compound was tested for inhibition of [3H]spiperone binding in membrane preparations obtained from rat corpus striatum.; type: functional
Rattus norvegicus [2] = organism: Rattus norvegicus; experiment: Percentage increase in rat corpus striatal HVA synthesis; type: functional
[3] = Compound was tested for inhibition of [3H]spiperone binding in membrane preparations obtained from calf caudate.; design: species or system Bos taurus
Dopamine receptor [4] = molecular target: Dopamine receptor (Bos taurus, UniProt Q95136+P20288)
Rattus norvegicus [5] = experiment: Compound was evaluated for its ability to stimulate the synthesis of homovanillic acid (HVA) in rat in vivo; type: functional
Dopamine receptor [6] = experiment: as §1

IC50 (Dopamine receptor [4]) | IC50 (Dopamine receptor [6]) | Compound | IC50 (Rattus norvegicus [1]) | Increase (Rattus norvegicus [2]) | IC50 [3] | ED50 (Rattus norvegicus [5])
 |  | CN(C)C1CCN2c3ccccc3Sc3cccc(c32)C1 (configuration not stated) | 2150 nM | 24% | 2400 nM | 
130 nM | 1.04 µM | CN(C)CCCN1c2ccccc2Sc2ccccc21 [PROMAZINE] |  | 250% |  | 200 µmol/kg
